# Test results as given in patent US20090061515A1, “Methods of inhibiting or suppressing cellular proliferation” (priority 2007, published 2009).
# Tested on: Human Coronary Artery Endothelial Cells (HCAEC)
# Test: CyQuant cell number / proliferation, HCAEC (Example 7)
# Format: cell-based
# Details: 1 mg/ml, after 96 hours post agent treatment, not following 24 hours exposure only
# Experimental: Cells were exposed to the test compounds for 24 to 48 hours and then allowed to grow for 96 hours in regular media (without test compound). The final concentrations for cell treatment were as follows: compounds 13358-18-1, 13358-18-2, 13358-18-4, and 13358-18-6 were evaluated at 10 mg/ml, 1 mg/ml, 100 micrograms/ml, and 10 micrograms/ml. Compounds 13358-18-3 and 13358-18-5 were evaluated at 50 mg/ml, 10 mg/ml, 1 mg/ml, and 100 micrograms/ml.
# Three assays were used to look at the proliferation, viability and cytotoxicity of the compounds on the cells. A non-radioactive cytotoxicity assay available under the trade designation CytoTox 96 from Promega Corporation (Madison, Wis.) is designed to determine the cytotoxicity of a substance by quantitatively measuring the presence of lactate dehydrogenase (LDH) in cell culture supernatant. LDH is released in cells that are undergoing cell death and the assay converts it to a red formazan product that can allows for the proportional amount of LDH absorbance to be read. A cell proliferation assay available under the trade designation CyQuant from Invitrogen Corporation (Carlsbad, Calif.) determines the density of cells in culture by eluding a green fluorescent dye which fluoresces when bound to cellular nucleic acids. The amount of nucleic acid present is proportional to the amount of living cells in culture, therefore an accurate cell count can be obtained. A luminescent cell viability assay available under the trade designation CellTiter-Glo from Promega Corporation (Madison, Wis.) uses the amount ATP present in the cell cytoplasm as an indicator for metabolic activity. The amount of ATP present is proportional to the measured amount of a luminescent signal. This assay was used to confirm if the cells are still viable after exposure to the test compounds.
row,SMILES,cell number and viability
1,"CC(=O)CCC(O)C(O)c1ccccc1 (stereo not drawn) [Compound 13358-18-1, 5,6-dihydroxy-6-phenyl-hexan-2-one]",some antiproliferative effect with viable cells
2,"O=C1CCCCC1CC(O)CO (stereo not drawn) [Compound 13358-18-4, 2-(2′,3′-dihydroxypropyl)-cyclohexanone]",some antiproliferative effect with viable cells
3,"CC(=O)OCC(O)CO (stereo not drawn) [Compound 13358-18-5, 2,3-dihydroxy-propyl acetate]",some antiproliferative effect with viable cells
